Patent US10722584B2, “Increasing the bioavailability of flavan-3-ols by polyphenols” (NESTEC S.A., priority 2012, dated 2020)

Design: species or system human
Settings: in vivo
Excerpt: Method: 12 healthy male (20-50 yrs) were enrolled in a randomized and double blind crossover design of four treatments with a minimum of 1 week wash-out period between each treatment was applied.
In the present invention, only 2 treatments are object of investigation: green tea extract (control) and green tea extract+hesperitin 7-glucoside (intervention).
Each treatment was formulated to contain 1 g equivalent of Choladi green tea extract. Subjects in the intervention group received a mixture of 1 g of green tea extract and 100 mg of hesperitin-7-glucoside.
After ingestion, plasma was collected over 24 h. Plasma EGCG analyses were performed by HPLC coupled with an electrochemical detection.
EGCG bioavailability was calculated from plasma kinetics by measuring the Area Under its concentration-time Curve (AUC).

SMILES: COc1ccc([C@@H]2CC(=O)c3c(O)cc(O[C@@H]4O[C@H](CO)[C@@H](O)[C@H](O)[C@H]4O)cc3O2)cc1O [hesperitin 7-glucoside]
- absorption of EGCG when flavan-3-ols are co-administered: significantly enhanced
